Blank lines part the entries; values can stand above or below the molecule they belong to. Where a SMILES comes first, the peptide text is derived from it.
Assays:
14-3-3γ/ChREBP = target: T1, 14-3-3γ/ChREBP (Homo sapiens, UniProt P61981+Q9NP71); experiment: 2D FA titration of 14-3-3/ChREBP and cooperativity analysis with thermodynamic equilibrium model; assay type: binding; conditions: determined by the thermodynamic model from 2D FA titrations; 95% confidence interval; read-out: apparent binding affinity of ChREBP for 14-3-3 (K^IID)
T1 construct: made in house; host or cells: E. coli NiCo21 (DE3) for 14-3-3 gamma; ChREBP is a synthetic peptide
T1 sequence (P61981 1-247): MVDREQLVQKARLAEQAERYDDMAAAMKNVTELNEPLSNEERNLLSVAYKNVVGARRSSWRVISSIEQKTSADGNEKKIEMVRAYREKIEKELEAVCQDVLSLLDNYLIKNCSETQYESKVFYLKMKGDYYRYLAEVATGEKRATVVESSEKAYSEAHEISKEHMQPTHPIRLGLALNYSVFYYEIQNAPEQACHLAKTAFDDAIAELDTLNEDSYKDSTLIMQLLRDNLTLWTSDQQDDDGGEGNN
T1 sequence (Q9NP71 118-142 partner limits assumed): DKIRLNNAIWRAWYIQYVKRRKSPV
Method: a four-parameter logistic model (4PL). Each measurement was performed in two independent […]
Fluorescence anisotropy (FA) - 2D-14-3-3/ChREBP titrations: 14-3-3γ was titrated in a 2-fold dilution series (starting at 300 µM 14-3-3γ) to 20 nM of fluorescein-labeled peptide 2d in FA buffer (10 mM HEPES pH 7.4, 150 mM NaCl, 0.1% (v/v) Tween20, 0.1% (w/v) BSA) in presence of 2-fold dilution series of unlabeled ChREBP peptide (0.01-10 µM). Dilution series were made in a polystyrene (non-binding) low-volume Corning Black Round Bottom 384-well plates (Corning 4514 or 4511). Measurements were performed directly after plate preparation, using a Tecan Infinite F500 plate reader at room temperature (lex: 485 ± 20 nm; lem: 535 ± 25 nm; mirror: Dichroic 510; flashes: 20; integration time: 50 ms; settle time:
0 ms; gain: optimal; and Z-position: calculated from well). Wells containing only FITC-peptide were used to set as G-factor at 35 mP. All data were analyzed using GraphPad Prism (7.00) for Windows and fitted using a four-parameter logistic model (4PL). […]
with R = 14-3-3, P = non-natural peptide (labelled), and C = ChREBP. The framework determined based on this system description the equilibrium equations needed to determine KDII and α. […] From this the model determined the KDII and α (with 95% confidence interval) and the error-landscape of the determine parameters. […]

ChREBP peptide = target: T2, ChREBP peptide (Homo sapiens, UniProt Q9NP71); experiment: 2D fluorescence anisotropy titration, thermodynamic equilibrium model fit
T2 chain: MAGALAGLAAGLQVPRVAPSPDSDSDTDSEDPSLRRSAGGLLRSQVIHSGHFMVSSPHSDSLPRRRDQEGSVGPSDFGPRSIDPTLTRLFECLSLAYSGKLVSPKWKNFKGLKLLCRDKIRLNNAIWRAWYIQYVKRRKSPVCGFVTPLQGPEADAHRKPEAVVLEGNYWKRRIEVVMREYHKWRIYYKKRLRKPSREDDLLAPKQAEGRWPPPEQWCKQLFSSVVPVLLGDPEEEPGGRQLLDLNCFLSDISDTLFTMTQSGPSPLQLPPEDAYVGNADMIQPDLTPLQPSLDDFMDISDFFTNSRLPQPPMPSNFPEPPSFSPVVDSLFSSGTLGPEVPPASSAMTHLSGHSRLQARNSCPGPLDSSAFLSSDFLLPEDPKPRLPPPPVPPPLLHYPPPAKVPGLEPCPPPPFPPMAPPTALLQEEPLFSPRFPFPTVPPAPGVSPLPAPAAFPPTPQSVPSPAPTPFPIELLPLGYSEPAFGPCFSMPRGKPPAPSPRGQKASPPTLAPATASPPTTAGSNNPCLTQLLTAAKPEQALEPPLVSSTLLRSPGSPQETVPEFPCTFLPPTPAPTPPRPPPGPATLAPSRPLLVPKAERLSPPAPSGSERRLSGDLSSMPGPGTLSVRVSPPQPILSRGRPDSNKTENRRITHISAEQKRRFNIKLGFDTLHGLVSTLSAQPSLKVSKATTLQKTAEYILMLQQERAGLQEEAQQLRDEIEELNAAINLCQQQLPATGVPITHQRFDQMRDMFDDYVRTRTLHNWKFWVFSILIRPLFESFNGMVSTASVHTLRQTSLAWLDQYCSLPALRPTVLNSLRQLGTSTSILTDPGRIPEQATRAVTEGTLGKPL

Kd (14-3-3γ/ChREBP): 1600 nM
Molecule: CC[C@H](C)[C@H](NC(=O)[C@H](C)NC(=O)[C@H](CC(N)=O)NC(=O)[C@H](CC(N)=O)NC(=O)[C@H](CC(C)C)NC(=O)[C@H](CCCNC(=N)N)NC(=O)[C@@H](NC(=O)[C@H](CCCCN)NC(=O)[C@H](CC(=O)O)NC(C)=O)[C@@H](C)CC)C(=O)N[C@@H](Cc1c[nH]c2ccccc12)C(=O)N[C@@H](CCCNC(=N)N)C(=O)N[C@@H](C)C(=O)N[C@@H](Cc1c[nH]c2ccccc12)C(=O)N[C@@H](Cc1ccc(O)cc1)C(=O)N[C@H](C(=O)N[C@@H](CCC(N)=O)C(=O)N[C@@H](Cc1ccc(O)cc1)C(=O)N[C@H](C(=O)N[C@@H](CCCCN)C(=O)N[C@@H](CCCNC(=N)N)C(=O)N[C@@H](CCCNC(=N)N)C(=O)N[C@@H](CCCCN)C(=O)N[C@@H](CO)C(=O)N1CCC[C@H]1C(=O)N[C@H](C(N)=O)C(C)C)C(C)C)[C@@H](C)CC [ChREBP, reference compound] (Ac-DKIRLNNAIWRAWYIQYVKRRKSPV-NH2)

Kd (ChREBP peptide): 1600 nM
B1: 14-3-3γ (protein)
chain: VDREQLVQKARLAEQAERYDDMAAAMKNVTELNEPLSNEERNLLSVAYKNVVGARRSSWRVISSIEQKTSADGNEKKIEMVRAYREKIEKELEAVCQDVLSLLDNYLIKNCSETQYESKVFYLKMKGDYYRYLAEVATGEKRATVVESSEKAYSEAHEISKEHMQPTHPIRLGLALNYSVFYYEIQNAPEQACHLAKTAFDDAIAELDTLNEDSYKDSTLIMQLLRDNLTLWTSDQQDDDGGEGNN

— article PMC9667936, “Functional mapping of the 14-3-3 hub protein as a guide to design 14-3-3 molecular glues” (Chemical Science, 2022)
